In article PMC6261293 (European journal of medicinal chemistry, 2018):
≈ marks a conversion by molar mass, not a printed value. One block for each molecule: values may come before it.

Key:
[1] = test system: NF-κB/AP-1 reporter activity in THP-1Blue cells; assay: LPS-induced NF-κB/AP-1 alkaline phosphatase reporter assay; format: cell-based, human; details: for inhibition of LPS-induced NF-κB/AP-1 activity: concentrations up to 50 µM
[2] = test system: IL-6 production by MonoMac-6 cells; assay: LPS-induced IL-6 production; format: cell-based, human; details: for inhibition of LPS-induced IL-6 production: concentrations up to 50 µM; for IL-6 IC50: MonoMac-6 cells, 250 ng/ml LPS, 24 h, N.A. = no inhibition at concentrations <40 µM
JNK2 = JNK2 (Homo sapiens, UniProt P45984); assay: KINOMEscan competition binding, JNK2; details: N.A. = no inhibition at concentrations <40 µM
JNK2, sequence (P45984 whole entry): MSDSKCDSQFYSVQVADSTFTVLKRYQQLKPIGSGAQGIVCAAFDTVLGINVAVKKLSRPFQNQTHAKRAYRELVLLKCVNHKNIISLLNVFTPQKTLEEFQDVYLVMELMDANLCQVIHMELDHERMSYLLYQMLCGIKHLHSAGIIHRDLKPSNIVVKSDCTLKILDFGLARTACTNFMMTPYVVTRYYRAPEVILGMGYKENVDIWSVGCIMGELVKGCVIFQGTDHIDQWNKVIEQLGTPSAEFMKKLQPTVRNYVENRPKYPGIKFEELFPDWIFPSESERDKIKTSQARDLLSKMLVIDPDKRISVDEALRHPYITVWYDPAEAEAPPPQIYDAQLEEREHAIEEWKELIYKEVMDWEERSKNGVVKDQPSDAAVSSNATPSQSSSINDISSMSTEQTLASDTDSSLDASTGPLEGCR

JNK3 = JNK3 (Homo sapiens, UniProt P53779); assay: KINOMEscan competition binding, JNK3; details: N.A. = no inhibition at concentrations <40 µM
JNK3, sequence (P53779 whole entry): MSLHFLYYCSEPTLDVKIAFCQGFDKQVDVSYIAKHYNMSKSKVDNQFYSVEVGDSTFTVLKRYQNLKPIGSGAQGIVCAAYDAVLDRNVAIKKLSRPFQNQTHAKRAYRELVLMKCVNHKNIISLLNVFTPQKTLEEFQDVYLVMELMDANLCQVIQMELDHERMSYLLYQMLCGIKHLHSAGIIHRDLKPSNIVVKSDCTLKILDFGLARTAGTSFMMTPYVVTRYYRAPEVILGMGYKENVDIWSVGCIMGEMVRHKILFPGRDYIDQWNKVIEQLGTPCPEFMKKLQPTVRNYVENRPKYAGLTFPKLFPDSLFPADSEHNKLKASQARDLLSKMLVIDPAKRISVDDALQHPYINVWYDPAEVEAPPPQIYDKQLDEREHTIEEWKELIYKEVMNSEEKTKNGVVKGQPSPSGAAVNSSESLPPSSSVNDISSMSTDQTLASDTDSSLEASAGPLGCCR

[3] = test system: c-Jun phosphorylation in MonoMac-6 cells; assay: c-Jun; format: cell-based, human; details: 30 min pretreatment, LPS 250 ng/ml 30 min
TRKA = TRKA (Homo sapiens, UniProt P04629); details: ref [29], [30]; cited from earlier work
TRKA, sequence (P04629 33-796): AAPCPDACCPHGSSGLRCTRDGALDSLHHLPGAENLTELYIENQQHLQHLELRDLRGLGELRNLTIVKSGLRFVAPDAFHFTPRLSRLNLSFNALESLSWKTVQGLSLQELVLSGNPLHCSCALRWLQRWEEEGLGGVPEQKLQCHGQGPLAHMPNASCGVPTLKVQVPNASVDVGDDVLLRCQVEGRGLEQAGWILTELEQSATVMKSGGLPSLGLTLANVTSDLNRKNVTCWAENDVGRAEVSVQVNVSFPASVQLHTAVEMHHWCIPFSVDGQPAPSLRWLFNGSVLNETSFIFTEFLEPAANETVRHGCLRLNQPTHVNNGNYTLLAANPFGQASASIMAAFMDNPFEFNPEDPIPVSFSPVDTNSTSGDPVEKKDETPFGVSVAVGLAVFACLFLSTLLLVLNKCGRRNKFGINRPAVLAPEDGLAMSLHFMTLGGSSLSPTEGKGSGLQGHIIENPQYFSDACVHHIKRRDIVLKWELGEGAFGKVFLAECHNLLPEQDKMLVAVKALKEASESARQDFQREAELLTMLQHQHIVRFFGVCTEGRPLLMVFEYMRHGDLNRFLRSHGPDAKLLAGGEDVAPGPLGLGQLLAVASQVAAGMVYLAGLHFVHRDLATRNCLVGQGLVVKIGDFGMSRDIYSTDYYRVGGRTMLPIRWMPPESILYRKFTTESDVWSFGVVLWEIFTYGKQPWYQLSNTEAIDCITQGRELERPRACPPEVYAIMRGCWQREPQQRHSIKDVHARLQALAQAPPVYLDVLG

Solubility in DMSO = format: physicochemical; details: organic solvent or mixture
[4] = THP-1Blue cells, 250 ng/ml LPS, 24 h, N.A. = no inhibition at concentrations <40 µM

IC50 ([1]; read-out: NF-κB/AP-1 IC50, THP-1Blue cells, 250 ng/ml LPS, 24 h, N.A. = no inhibition at concentrations <40 µM): 3.4 ± 0.5 µM
Molecule: anthra[1–9-cd]pyrazol-6(2H)-one [SP600125, reference compound]

Molecule: O=C1c2ccccc2-c2nc3ccncc3nc21 [compound 5, 10H-Indeno[1,2-b]pyrido[3,4-e]pyrazin-10-one]
inhibition of LPS-induced IL-6 production [2]: did not inhibit
inhibition of LPS-induced NF-κB/AP-1 activity [1]: did not inhibit

Molecule: O=C1c2ccccc2-c2nc3ncccc3nc21 [3a, 6H-Indeno[1,2-b]pyrido[3,2-e]pyrazin-6-one]
inhibition of LPS-induced IL-6 production [2]: did not inhibit
inhibition of LPS-induced NF-κB/AP-1 activity [1]: did not inhibit

IL-6 IC50 [2]: did not inhibit
NF-κB/AP-1 IC50 [1, 4]: did not inhibit
Molecule: [Na+].[O-]/N=C1/c2ccccc2-c2nc3ccc(C(F)(F)F)cc3nc21 [6h, 8-Trifluoromethyl-11H-indeno[2,3-b]quinoxalin-11-one oxime]

IL-6 IC50 [2]: did not inhibit
NF-κB/AP-1 IC50 [1, 4]: did not inhibit
Molecule: [Na+].[O-]/N=C1/c2ccccc2-c2nc3c(Cl)cc(Cl)cc3nc21 [6b, 6,8-Dichloro-11H-indeno[2,3-b]quinoxalin-11-one oxime]

Molecule: O=C1c2ccccc2-n2c1nc1ccccc1c2=O [Trp, tryptanthrin, reference compound]
inhibition of LPS-induced IL-6 production [2]: did not inhibit
inhibition of LPS-induced NF-κB/AP-1 activity [1]: did not inhibit
JNK2 Kd (JNK2): inactive
JNK3 Kd (JNK3): inactive

Molecule: CCOC(=O)CO/N=C1\c2ccccc2-c2nc3ccccc3nc21 [10c, 11H-Indeno[1,2-b]quinoxalin-11-one O-(O-ethylcarboxymethyl) oxime]
inhibition of c-Jun phosphorylation [3]: inhibited c-Jun phosphorylation

Molecule: O=C(O/N=C1\c2ccccc2-c2nc3ccccc3nc21)c1ccco1 [IQ-3]
binding to TRK-A (TRKA): did not bind

solubility (Solubility in DMSO): ~10 mM (≈ 2470 µg/mL)
Molecule: O/N=C1\c2ccccc2-c2nc3ccccc3nc21 [IQ-1, 11H-indeno[1,2-b]quinoxalin-11-one oxime]
binding to TRK-A (TRKA): did not bind
